From US4393228A, “Epoxysuccinic acid derivatives” (Taisho Pharmaceutical Co., Ltd., priority 1977, dated 1983)
Like-named read-outs stand apart in the source and are kept apart here.

Assays:
[1] = system: adjuvant induced polyarthritis; assay: Inhibition of adjuvant induced polyarthritis in rats (hind paw volume); type: in vivo, Sprague Dawley rat; settings: Rattus norvegicus
Method: Effect of the compounds of this invention on the development of adjuvant-induced polyarthritis in rats was assayed as follows: Adjuvant arthritis was produced by a single intracutaneous injection of 0.1 ml of the adjuvant mixture containing heat-killed mycobacteria of the human Aoyama B strain suspended in liquid paraffin in 0.6% in the middle part of the distal tail of Sprague Dawley rat (female, 8 weeks old). […] The activity was measured as the mean inhibition percent for the increase of the hind paw volume of the 8 rats/group on the days 17 and 23 on which the legs become inflamed and reach maximum volumes. The compound Nos. in Table 2 are as defined in Examples as described hereinafter.

[2] = target: T1, papain (Carica papaya, UniProt P00784); assay: Papain inhibitory activity (milk casein digestion); type: biochemical; settings: papain 80 μg/ml 0.5 ml, cysteine, pH 6.8, 1% milk casein, 40° C., 10 minutes
T1 construct: purchased Sigma Chem. Co
T1 sequence (P00784 134-345): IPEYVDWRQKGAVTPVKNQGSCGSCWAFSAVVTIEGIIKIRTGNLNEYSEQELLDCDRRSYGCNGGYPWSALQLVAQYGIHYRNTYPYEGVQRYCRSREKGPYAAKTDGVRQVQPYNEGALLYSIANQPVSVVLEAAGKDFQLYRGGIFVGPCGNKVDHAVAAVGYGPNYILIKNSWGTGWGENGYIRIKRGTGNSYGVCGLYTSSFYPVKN
Outline: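 Papain (80 μg/ml stock) preincubated 15 min at 40 °C with inhibitor, cysteine/EDTA activator and phosphate buffer pH 6.8. Then 1% milk casein digested 10 min at 40 °C, stopped with trichloroacetic acid and filtered; filtrate absorbance at 280 nm gives percent inhibition versus no-inhibitor control.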

[3] = system: thiol proteases; settings: U.S. Pat. No. 3,911,111; cited from earlier work
[4] = U.S. Pat. No. 3,911,111; cited from earlier work
[5] = prior art compound; cited from earlier work
[6] = 408 h, 100 mg/kg of body weight, daily oral, day 17, read-out: Inhibition % 17 days (increase of hind paw volume)
[7] = 552 h, 100 mg/kg of body weight, daily oral, day 23, read-out: Inhibition % 23 days (increase of hind paw volume)
[8] = po, 408 h, read-out: Inhibition % 17 days (increase of hind paw volume)
[9] = po, 552 h, read-out: Inhibition % 23 days (increase of hind paw volume)

| SMILES | inhibition in vivo at 100 mg/kg [1, 6] [%] | inhibition in vivo at 100 mg/kg [1, 7] [%] | ID50 (amount of inhibitor for 50% inhibition) [2] | thiol protease inhibitory activity [3] | anti-inflammatory activity [4] | acceleration of vascular permeability (side effect) [5] | inhibition in vivo at 100 mg/kg [1, 8] [%] | inhibition in vivo at 100 mg/kg [1, 9] [%] |
| --- | --- | --- | --- | --- | --- | --- | --- | --- |
| O=C(OC1CCCCC1)[C@@H]1O[C@H]1C(=O)OC1CCCCC1 (relative stereo) [EP-1, dicyclohexyl epoxysuccinate] | 82.1 | 77 | 1.98 γ | – | – | – | – | – |
| O=C(O)[C@@H]1O[C@H]1C(=O)OC1CCCCC1 (relative stereo) [EP-2, cyclohexyl potassium epoxysuccinate] | 43.2 | 50 | 0.07 γ | – | – | – | – | – |
| C[C@H]1CC[C@@H](OC(=O)[C@@H]2O[C@H]2C(=O)O[C@H]2CC[C@@H](C)CC2)CC1 (relative stereo) [EP-17, di-4'-cis-methylcyclohexyl epoxysuccinate] | 100 | 78.7 | 1.79 γ | – | – | – | – | – |
| O=C(OC1CCCC1)[C@@H]1O[C@H]1C(=O)OC1CCCC1 (relative stereo) [EP-25, dicyclopentyl epoxysuccinate] | 52.6 | 77.8 | 3.03 γ | – | – | – | – | – |
| O=C(O)[C@@H]1O[C@H]1C(=O)OC1CCCC1 (relative stereo) [EP-26, cyclopentyl potassium epoxysuccinate] | 52 | 55.5 | 0.08 γ | – | – | – | – | – |
| O=C(OCC1CCCO1)[C@@H]1O[C@H]1C(=O)OCC1CCCO1 (relative stereo) [EP-75, di-tetrahydro-2-furanmethyl epoxysuccinate] | 89.6 | 41 | 1.65 γ | – | – | – | – | – |
| O=C(OCc1cccs1)[C@@H]1O[C@H]1C(=O)OCc1cccs1 (relative stereo) [EP-79, di-2-thenyl epoxysuccinate] | 64.3 | 90.2 | 0.75 γ | – | – | – | – | – |
| O=C(OCc1cccc2ccccc12)[C@@H]1O[C@H]1C(=O)OCc1cccc2ccccc12 (relative stereo) [EP-81, di-1'-naphthylmethyl epoxysuccinate] | 64.3 | 83.6 | 1.30 γ | – | – | – | – | – |
| COc1ccc(COC(=O)[C@@H]2O[C@H]2C(=O)O)cc1 (relative stereo) [EP-102, p-methoxybenzyl potassium epoxysuccinate] | 28 | 31 | 0.36 γ | – | – | – | – | – |
| O=C(O)[C@H]1O[C@@H]1C(=O)OCc1ccc(Cl)cc1 (relative stereo) [EP-116, p-chlorobenzyl potassium epoxysuccinate] | 35 | 33.5 | 0.32 γ | – | – | – | – | – |
| O=C(OCc1cccc(F)c1)[C@H]1O[C@@H]1C(=O)OCc1cccc(F)c1 (relative stereo) [EP-121, di-m-fluorobenzyl epoxysuccinate] | 53.6 | 38.9 | 0.46 γ | – | – | – | – | – |
| O=C(OCCCc1ccccc1)[C@H]1O[C@@H]1C(=O)OCCCc1ccccc1 (relative stereo) [EP-131, di-3'-phenylpropyl epoxysuccinate] | 57.1 | 49.2 | 11.36 γ | – | – | – | – | – |
| CCOC(=O)[C@H]1O[C@@H]1C(=O)O (relative stereo) [EP-137, ethyl potassium epoxysuccinate] | 40 | 38.5 | 2.08 γ | – | – | – | – | – |
| O=C(O)[C@H]1O[C@@H]1C(=O)OCc1ccccc1 (relative stereo) [EP-143, benzyl potassium epoxysuccinate] | 45.1 | 35.6 | 0.15 γ | – | – | – | – | – |
| CCCCCOC(=O)[C@H]1O[C@@H]1C(=O)O (relative stereo) [EP-144, n-amyl potassium epoxysuccinate] | 33.3 | 32.1 | 0.34 γ | – | – | – | – | – |
| CC(C)C[C@H](NC(=O)[C@H]1O[C@@H]1C(=O)O)C(=O)NCCCCN=C(N)N [E-64] | – | – | – | possessing thiol protease inhibitory activity | anti-inflammatory activity | acceleration of vascular permeability | – | – |
| CC(C)C[C@H](NC(=O)C1OC1C(=O)[O-])C(=O)[O-].[K+].[K+] (stereo partly drawn) [EP-174, N-(3-carboxyoxirane-2-carbonyl)-L-leucine dipotassium salt] | – | – | 0.20 γ | – | – | – | 30.5 | 29 |
| O=C([O-])C1OC1C(=O)N[C@@H](Cc1ccccc1)C(=O)[O-].[K+].[K+] (stereo partly drawn) [EP-175, N-(3-carboxyoxirane-2-carbonyl)-L-phenylalanine dipotassium salt] | – | – | 1.90 γ | – | – | – | 32 | 31.5 |
